Data published in ChEMBL document CHEMBL2396562, “Synthesis and SAR of potent and selective tetrahydropyrazinoisoquinolinone 5-HT(2C) receptor agonists” (Bioorg Med Chem Lett, 2013).

Legend:
[1] = in vivo; details: Sprague-Dawley, rat, po, 10 mg/kg
[2] = in vivo; details: Sprague-Dawley, rat, brain/plasma, po, 10 mg/kg
[3] = in vivo; details: Sprague-Dawley, rat, po, 10 mg/kg; remark: listed apart in the source

## CCc1cccc2c1C[C@@H]1CNCCN1C2=O
[1]
  Cmax: 3.62 µM
[2]
  Kp: 3.9
[3]
  AUC(0-t) at 4 h: 9.64 µM·h
